From patent US8614217B2 (priority 2008, dated 2013)

Experiment: log P(HCOOH) (HPLC/MS)
Format: physicochemical
Details: HPLC on reversed phase columns, EEC directive 79/831 Annex V.A8
[1] = pH 2.7, 0.1% formic acid in water / acetonitrile gradient
[2] = pH 2.7 with 0.1% formic acid in water and acetonitrile

Row | Compound | log p [1] | further results
1 | Cc1nnnn1C(=NOCc1cccc(NC(=O)OCCCCCl)n1)c1ccccc1 [Example 20] | 3.73 | 
2 | Cn1nnnc1C(=NOCc1cccc(NC(=O)c2cccnc2Cl)n1)c1cccc(F)c1 [Example 360] |  | log p [2]: 2.94
3 | Cn1nnnc1C(=NOCc1csc(NC(=O)c2ccc(Cl)cc2)n1)c1ccccc1 [Example 333] |  | log p [2]: 3.74
4 | CCOC(=O)CCCC(=O)Nc1cccc(CON=C(c2ccccc2)n2nnnc2C)n1 [Example 148] | 2.98 | 
5 | C#CCCOC(=O)Nc1cccc(CON=C(c2cccc(F)c2)c2nnnn2C)n1 [Example 13] | 3.21 | 
6 | C#CCCCC(=O)Nc1cccc(CON=C(c2ccccc2)n2nnnc2C)n1 [Example 34] |  | chromatographic logP (pH 2.7, 0.1% formic acid in water / acetonitrile gradient, read-out: log p): 3.04
7 | COCCOC(=O)Nc1nc(CON=C(c2cccc(F)c2)c2nnnn2C)cs1 [Example 301] |  | log p [2]: 2.66
8 | Cn1nnnc1C(=NOCc1csc(NC(=O)CC2CC2)n1)c1cccc(F)c1 [Example 170] | 2.98 | 
9 | Cc1nnnn1C(=NOCc1cccc(NC(=O)COCc2ccccc2)n1)c1ccccc1 [Example 144] | 3.73 | 
10 | Cn1nnnc1C(=NOCc1csc(NC(=O)CCCOc2ccccc2)n1)c1cccc(F)c1 [Example 196] | 3.7 | 
11 | Cc1nnnn1C(=NOCc1cccc(NC(=O)CO[C@@H]2C[C@H](C)CC[C@H]2C(C)C)n1)c1ccccc1 [Example 126] | 5.95 | 
12 | Cc1nnnn1C(=NOCc1cccc(NC(=O)CCC2CCCC2)n1)c1ccccc1 [Example 44] | 4.25 | 
